In the supplement of paper PMC11061612 one finds Bliss excess data, which are given here for six compounds.

SMILES strings stand for the structures.

Common to all, as to assay: Bliss excess, mean over the matrix (fraction); higher = more synergy
The test system of experiment [1] is TGBC11TKB (Gastric Carcinoma). In outline: (§1)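 Cell lines grown in DMEM/F12 or RPMI with 10% FBS were plated in 1536-well plates and held 24 hours at 37°C, 5% CO2 before 72 hours of exposure to two-drug dose matrices, with DMSO typically at 0.2%. CellTiter-Glo 2.0 luminescence gave viability, which was converted to inhibition. Vehicle wells were set to 0 and blank wells to 1. Combination Emax is the second-highest inhibition in the matrix, and Bliss excess is the observed combination effect minus the expected EA + EB − EA·EB, where EA and EB are the single-agent effects.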

The test system of experiment [2] is SCC-3 (B-Cell Non-Hodgkin's Lymphoma). In short, it runs like this: as §1
Experiment [3] has as its system JHH-7 (Hepatocellular Carcinoma). In outline: as §1
In a further experiment the test system is U-87-MG (Glioblastoma). In short, it runs like this:
as §1

Experiment [4] relates to KU-19-19 (Bladder Carcinoma). In short, it runs like this:
as §1

The next experiment has as its system A704 (Kidney Carcinoma). In outline: as §1
The test system of experiment [5] is OCUB-M (Breast Carcinoma). In outline:
as §1

Another experiment concerns EW-3 (Ewing's Sarcoma). In outline: as §1
In experiment [6] the test system is MFE-319 (Endometrial Carcinoma). In short, it runs like this: as §1
Experiment [7] concerns DG-75 (Burkitt's Lymphoma). In short, it runs like this: as §1
Experiment [8] relates to HC-1 (Other Blood Carcinomas). In outline: as §1
Experiment [9] has as its system KP-2 (Pancreatic Carcinoma). In short, it runs like this: as §1
The test system of experiment [10] is HuP-T3 (Pancreatic Carcinoma). In outline:
as §1

For experiment [11], the system named is KLE (Endometrial Carcinoma). In short, it runs like this:
as §1

In the case of `Cc1c2c(nn1C)CSCc1cc(n(C)n1)CSc1cc(c3ccccc3c1)OCCCc1c(C(=O)O)n(C)c3c-2c(Cl)ccc13` [AZD5991] + Cn1cnc2c(F)c(Nc3ccc(Br)cc3Cl)c(C(=O)NOCCO)cc21 [Selumetinib] (first compound max 1 µM, 7x7, partner max 3 µM), the Bliss excess is 0.0592 in [1]; 0.0783 in [2]; -0.0649 in experiment [3]; -0.0073 in the experiment with U-87-MG (Glioblastoma); 0.0759 in experiment [4]; -0.106 in the experiment on A704 (Kidney Carcinoma). Moreover, the Bliss excess in experiment [5] is 0.0322; in the experiment on EW-3 (Ewing's Sarcoma) it was -0.0435; in [6], -0.0233; in experiment [7] it was -0.0023; in [8], 0.0827; in experiment [9], 0.137. For the same compound, the Bliss excess in [10] is 0.032; in [11], -0.0374.
`Cc1c2c(nn1C)CSCc1cc(n(C)n1)CSc1cc(c3ccccc3c1)OCCCc1c(C(=O)O)n(C)c3c-2c(Cl)ccc13` [AZD5991] + C[C@@H](Nc1cc(F)cc(F)c1)c1cc(C(=O)N(C)C)cc2c(=O)cc(N3CCOCC3)oc12 [AZD8186] (first compound max 1 µM, 7x7, partner max 3 µM): the Bliss excess was 0.0005 in experiment [1]; -0.0036 in experiment [2]; -0.0439 in experiment [3]; -0.097 in the experiment on U-87-MG (Glioblastoma); 0.0033 in experiment [4]; -0.0291 in the experiment with A704 (Kidney Carcinoma). The Bliss excess was -0.0067 in experiment [5]; -0.0129 in the experiment with EW-3 (Ewing's Sarcoma); 0.0209 in experiment [6]; 0.0008 in [7]; 0.0381 in experiment [8]; 0.0193 in experiment [9]. Also, the Bliss excess in experiment [10] is -0.0622; in experiment [11], 0.0077.
With `NC1(C(=O)N[C@@H](CCO)c2ccc(Cl)cc2)CCN(c2ncnc3[nH]ccc23)CC1` [Capivasertib] + CCN(CCO)CCCOc1ccc2c(Nc3cc(CC(=O)Nc4cccc(F)c4)[nH]n3)ncnc2c1 [AZD2811] (first compound max 10 µM, 7x7, partner max 1 µM), the Bliss excess in [1] is -0.0987; in [2] it was 0.0443; in experiment [3], -0.0692; in the experiment with U-87-MG (Glioblastoma) it was 0.0175; in experiment [4], 0.0011; in the experiment with A704 (Kidney Carcinoma), -0.0375. Besides, the Bliss excess in [5] is -0.0217; in the experiment on EW-3 (Ewing's Sarcoma), 0.0117; in [6], -0.107; in experiment [7], 0.04; in [8], -0.0564; in experiment [9], -0.0433. Further, the Bliss excess is -0.0317 in experiment [10] and -0.0611 in experiment [11].
Consider `COc1nnc2ccc(N3CCC(c4ccc(OCCN5CCN(C)C(=O)[C@H]5C)cc4)CC3)nn12` [AZD5153] + Cn1cnc2c(F)c(Nc3ccc(Br)cc3Cl)c(C(=O)NOCCO)cc21 [Selumetinib] (first compound max 1 µM, 7x7, partner max 10 µM), for which the Bliss excess was 0.0671 in [1]; -0.053 in experiment [2]; -0.0274 in experiment [3]; -0.0591 in the experiment on U-87-MG (Glioblastoma); -0.0007 in experiment [4]; -0.0077 in the experiment on A704 (Kidney Carcinoma). Further, the Bliss excess in experiment [5] is -0.0036; with EW-3 (Ewing's Sarcoma) it was -0.0625; in experiment [6] it was -0.0265; in [7], -0.0177; in experiment [8] it was -0.105; in experiment [9], -0.0001. Moreover, the Bliss excess in experiment [10] is 0.0075; in experiment [11], -0.0636.
Turning to `NC1(C(=O)N[C@@H](CCO)c2ccc(Cl)cc2)CCN(c2ncnc3[nH]ccc23)CC1` [Capivasertib] + C[C@@H]1COCCN1C2=NC(=NC(=C2)C3(CC3)[S@](=N)(=O)C)C4=C5C=CNC5=NC=C4 [AZD6738] (first compound max 10 µM, 7x7, partner max 10 µM), the Bliss excess in experiment [1] was -0.09; in experiment [2] it was -0.0037; in experiment [3] it was -0.0404; with U-87-MG (Glioblastoma), 0.0169; in experiment [4], -0.0748; in the experiment with A704 (Kidney Carcinoma) it was -0.0571. Also, the Bliss excess was -0.0241 in experiment [5]; -0.0457 in the experiment on EW-3 (Ewing's Sarcoma); -0.122 in experiment [6]; -0.0138 in [7]; -0.0166 in experiment [8]; -0.0279 in [9]. Further, the Bliss excess in experiment [10] was -0.036; in [11] it was -0.0692.
Take `COc1nnc2ccc(N3CCC(c4ccc(OCCN5CCN(C)C(=O)[C@H]5C)cc4)CC3)nn12` [AZD5153] + C=CCn1c(=O)c2cnc(Nc3ccc(N4CCN(C)CC4)cc3)nc2n1-c1cccc(C(C)(C)O)n1 [AZD1775] (first compound max 1 µM, partner max 1 µM): the Bliss excess was -0.0699 in [1]; -0.046 in [2]; -0.0749 in experiment [3]; -0.119 with U-87-MG (Glioblastoma); -0.121 in experiment [4]; -0.0375 in the experiment on A704 (Kidney Carcinoma). The Bliss excess in experiment [5] was -0.0224; in the experiment with EW-3 (Ewing's Sarcoma), -0.122; in experiment [6] it was -0.13; in [7], -0.0437; in experiment [8], -0.078; in experiment [9], -0.0288. The Bliss excess in experiment [10] was -0.0521; in [11], -0.0754.
